Measurements: US20250382305A1 (PTC THERAPEUTICS, INC., priority 2022, published 2025)

What was measured:
ATXN3 pre-mRNA = test: RT-qPCR Assay to Quantify Exon 4 Skipping in ATXN3 pre-mRNA in Cells; format: cell-based; conditions: percent exon 4 skipping in ATXN3 pre-mRNA, RT-qPCR of cell lysates; average IC50
Procedure, shortened: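 Cells plated at 10,000/well onto a 7-point, 3.16-fold DMSO dilution series (duplicates), incubated 24 h at 37 °C, then lysed. Exon 4 skipping measured by one-step RT-qPCR (48 °C RT, 40 cycles); IC50 interpolated from dose-response fit of percent skipping.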

[1] = tested on: Total ATXN3 (tATXN3) protein; test: Endogenous Total ATXN3 (tATXN3) Protein Assay (MSD immunoassay of cell lysates); format: cell-based; conditions: average IC50, total ATXN3 protein in cell lysate after 48 h with compound (Table 1)
Procedure, shortened: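 Cells in DMEM/10% FBS were plated at 10,000 per well onto 7-point, 3.16-fold compound dilutions in duplicate for 48 h at 37° C, then lysed. Total ATXN3 in lysates was measured by MSD sandwich immunoassay: mouse anti-ATXN3 capture, rabbit anti-ATXN3 detection, SULFO-TAG anti-rabbit. Average IC50 was reported in star bins.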

For `N[C@H]1CCC[C@@H]1c1sc2c(NCc3ccccc3)cc(Cl)nc2c1Br` [Compound 166, 2-((1S,2S)-2-aminocyclopentyl)-N-benzyl-3-bromo-5-chlorothieno[3,2-b]pyridin-7-amine], the IC50 (ATXN3 pre-mRNA) was 30 to 300 nM and the IC50 [1] was 30 to 300 nM.

In the case of `N[C@H]1COCC[C@@H]1c1sc2c(NCc3nccs3)cc(Cl)nc2c1Cl` [Compound 337, 2-((3R,4S)-3-aminotetrahydro-2H-pyran-4-yl)-3,5-dichloro-N-(thiazol-2-ylmethyl)thieno[3,2-b]pyridin-7-amine], the IC50 (ATXN3 pre-mRNA) is reported as 30 to 300 nM and the IC50 [1] is reported as 30 to 300 nM.

`N#Cc1cc(NCc2ccco2)c2sc([C@H]3CC=CC[C@@H]3N)c(Cl)c2n1` [Compound 242, 2-((1S,6S)-6-aminocyclohex-3-en-1-yl)-3-chloro-7-((furan-2-ylmethyl)amino)thieno[3,2-b]pyridine-5-carbonitrile] showed an IC50 (ATXN3 pre-mRNA) of at most 30 nM and an IC50 [1] of at most 30 nM.

Molecule `NC1CCCOC1c1sc2c(NCc3ccccc3F)cc(Cl)nc2c1Cl` (mixture of isomers) [Compound 24, 2-((2R,3R)-3-aminotetrahydro-2H-pyran-2-yl)-3,5-dichloro-N-(2-fluorobenzyl)thieno[3,2-b]pyridin-7-amine and 2-((2S,3S)-3-aminotetrahydro-2H-pyran-2-yl)-3,5-dichloro-N-(2-fluorobenzyl)thieno[3,2-b]pyridin-7-amine] has an IC50 (ATXN3 pre-mRNA) of 30 to 300 nM and an IC50 [1] of 30 to 300 nM.

`N[C@H]1CCCC[C@H]1c1cc2nc(Cl)cc(NCc3cccs3)c2s1` [Compound 22, 2-((1R,2S)-2-aminocyclohexyl)-5-chloro-N-(thiophen-2-ylmethyl)thieno[3,2-b]pyridin-7-amine] was tested, and the IC50 (ATXN3 pre-mRNA) was 300 to 1000 nM and the IC50 [1] was 300 to 1000 nM.

For `Cc1c([C@@H]2CC=CC[C@H]2N)n(C(F)F)c2c(NCc3ccco3)nc(Cl)nc12.Cc1c([C@H]2CC=CC[C@@H]2N)n(C(F)F)c2c(NCc3ccco3)nc(Cl)nc12` (mixture of isomers) [Compound 358, 6-((1R,6R)-6-aminocyclohex-3-en-1-yl)-2-chloro-5-(difluoromethyl)-N-(furan-2-ylmethyl)-7-methyl-5H-pyrrolo[3,2-d]pyrimidin-4-amine and 6-((1S,6S)-6-aminocyclohex-3-en-1-yl)-2-chloro-5-(difluoromethyl)-N-(furan-2-ylmethyl)-7-methyl-5H-pyrrolo[3,2-d]pyrimidin-4-amine], the IC50 (ATXN3 pre-mRNA) was 30 to 300 nM and the IC50 [1] was 30 to 300 nM.

Work on `N[C@H]1CC=CC[C@@H]1c1sc2c(NCc3ccccc3)cc(Cl)nc2c1I` [Compound 190, 2-((1S,6S)-6-aminocyclohex-3-en-1-yl)-N-benzyl-5-chloro-3-iodothieno[3,2-b]pyridin-7-amine] yielded an IC50 (ATXN3 pre-mRNA) of at most 30 nM and an IC50 [1] of at most 30 nM.

With `N[C@H]1CCCC[C@@H]1c1cc2nc(Cl)cc(NCc3cccs3)c2s1` [Compound 21, 2-((1S,2S)-2-aminocyclohexyl)-5-chloro-N-(thiophen-2-ylmethyl)thieno[3,2-b]pyridin-7-amine] the IC50 (ATXN3 pre-mRNA) was 30 to 300 nM and the IC50 [1] was 30 to 300 nM.

`N[C@H]1CC=CC[C@@H]1c1sc2c(NCc3cccs3)nc(Cl)nc2c1Br` [Compound 191, 6-((1S,6S)-6-aminocyclohex-3-en-1-yl)-7-bromo-2-chloro-N-(thiophen-2-ylmethyl)thieno[3,2-d]pyrimidin-4-amine] was tested, and the IC50 (ATXN3 pre-mRNA) was at most 30 nM and the IC50 [1] was at most 30 nM.

Molecule `[2H]C1=C([2H])C([2H])([2H])[C@H](c2sc3c(NCc4cccs4)cc(Cl)nc3c2C)[C@@H](N)C1([2H])[2H]` [Compound 261, 2-((1S,6S)-6-aminocyclohex-3-en-1-yl-2,2,3,4,5,5-d6)-5-chloro-3-methyl-N-(thiophen-2-ylmethyl)thieno[3,2-b]pyridin-7-amine] has an IC50 (ATXN3 pre-mRNA) of 30 to 300 nM and an IC50 [1] of 30 to 300 nM.

`N[C@@H]1CC=CC[C@H]1c1sc2c(NCc3ccco3)nc(Cl)nc2c1I` [Compound 323, 6-((1R,6R)-6-aminocyclohex-3-en-1-yl)-2-chloro-N-(furan-2-ylmethyl)-7-iodothieno[3,2-d]pyrimidin-4-amine] showed an IC50 (ATXN3 pre-mRNA) of 30 to 300 nM and an IC50 [1] of 30 to 300 nM.

For `N[C@@H]1CCCC(F)(F)[C@H]1c1sc2c(NCc3ccco3)nc(Cl)nc2c1Br` [Compound 412, 6-((1S,6R)-6-amino-2,2-difluorocyclohexyl)-7-bromo-2-chloro-N-(furan-2-ylmethyl)thieno[3,2-d]pyrimidin-4-amine], the IC50 (ATXN3 pre-mRNA) was 300 to 1000 nM and the IC50 [1] was 300 to 1000 nM.

With “6-((3R,4S)-3-aminotetrahydro-2H-pyran-4-yl)-2-chloro-N-(furan-2-ylmethyl)-7-((trimethylsilyl)ethynyl)thieno[3,2-d]pyrimidin-4-amine and 6-((3S,4R)-3-aminotetrahydro-2H-pyran-4-yl)-2-chloro-N-(furan-2-ylmethyl)-7-((trimethylsilyl)ethynyl)thieno[3,2-d]pyrimidin-4-amine [Compound 317]” the IC50 (ATXN3 pre-mRNA) was 30 to 300 nM and the IC50 [1] was 30 to 300 nM.

For `N[C@@H]1CCCCC[C@H]1c1cc2nc(Cl)cc(NCc3cccs3)c2s1` [Compound 80, 2-((1R,2R)-2-aminocycloheptyl)-5-chloro-N-(thiophen-2-ylmethyl)thieno[3,2-b]pyridin-7-amine], the IC50 (ATXN3 pre-mRNA) was over 1000 nM and the IC50 [1] was over 1000 nM.

In the case of `N[C@H]1CC=CC[C@@H]1c1c(I)c2nc(Cl)nc(NCc3ccccc3)c2n1C(F)F` [Compound 348, 6-((1S,6S)-6-aminocyclohex-3-en-1-yl)-N-benzyl-2-chloro-5-(difluoromethyl)-7-iodo-5H-pyrrolo[3,2-d]pyrimidin-4-amine], the IC50 (ATXN3 pre-mRNA) is reported as 30 to 300 nM and the IC50 [1] is reported as 30 to 300 nM.

Work on “2-((1R,6R)-6-aminocyclohex-3-en-1-yl)-3-bromo-5-chloro-N-((E)-pent-2-en-1-yl)thieno[3,2-b]pyridin-7-amine and 2-((1S,6S)-6-aminocyclohex-3-en-1-yl)-3-bromo-5-chloro-N-((E)-pent-2-en-1-yl)thieno[3,2-b]pyridin-7-amine [Compound 455]” yielded an IC50 (ATXN3 pre-mRNA) of 300 to 1000 nM and an IC50 [1] of 300 to 1000 nM.

With `Cn1c([C@@H]2CCOC[C@H]2N)c(Br)c2nc(Cl)cc(NCc3cccs3)c21` [Compound 384, 2-((3S,4R)-3-aminotetrahydro-2H-pyran-4-yl)-3-bromo-5-chloro-1-methyl-N-(thiophen-2-ylmethyl)-1H-pyrrolo[3,2-b]pyridin-7-amine] the IC50 (ATXN3 pre-mRNA) was 30 to 300 nM and the IC50 [1] was 30 to 300 nM.

Molecule `CC#Cc1c([C@H]2CCCC[C@@H]2N)n(C(F)F)c2c(NCc3ccco3)nc(Cl)nc12` [Compound 331, 6-((1S,2S)-2-aminocyclohexyl)-2-chloro-5-(difluoromethyl)-N-(furan-2-ylmethyl)-7-(prop-1-yn-1-yl)-5H-pyrrolo[3,2-d]pyrimidin-4-amine] has an IC50 (ATXN3 pre-mRNA) of 30 to 300 nM and an IC50 [1] of 30 to 300 nM.

`N[C@H]1CCCO[C@@H]1c1sc2c(NCc3ccco3)cc(Cl)nc2c1Br` [Compound 115, 2-((2S,3S)-3-aminotetrahydro-2H-pyran-2-yl)-3-bromo-5-chloro-N-(furan-2-ylmethyl)thieno[3,2-b]pyridin-7-amine] showed an IC50 (ATXN3 pre-mRNA) of at most 30 nM and an IC50 [1] of at most 30 nM.

`N[C@H]1CC=CC[C@@H]1c1c(I)c2nc(Cl)cc(NCc3ccccc3)c2n1C(F)F` [Compound 352, 2-((1S,6S)-6-aminocyclohex-3-en-1-yl)-N-benzyl-5-chloro-1-(difluoromethyl)-3-iodo-1H-pyrrolo[3,2-b]pyridin-7-amine] showed an IC50 (ATXN3 pre-mRNA) of 30 to 300 nM and an IC50 [1] of 30 to 300 nM.

With `N[C@H]1CCCO[C@@H]1c1c(Cl)c2nc(Cl)nc(NCc3ccco3)c2n1C(F)F` [Compound 244, 6-((2S,3S)-3-aminotetrahydro-2H-pyran-2-yl)-2,7-dichloro-5-(difluoromethyl)-N-(furan-2-ylmethyl)-5H-pyrrolo[3,2-d]pyrimidin-4-amine] the IC50 (ATXN3 pre-mRNA) was at most 30 nM and the IC50 [1] was at most 30 nM.

“2-((3R,4S)-3-aminotetrahydro-2H-pyran-4-yl)-N-benzyl-3,5-dichlorothieno[3,2-b]pyridin-7-amine and 2-((3S,4R)-3-aminotetrahydro-2H-pyran-4-yl)-N-benzyl-3,5-dichlorothieno[3,2-b]pyridin-7-amine [Compound 388]” showed an IC50 (ATXN3 pre-mRNA) of 30 to 300 nM and an IC50 [1] of 30 to 300 nM.

Molecule `N[C@H]1CCCO[C@@H]1c1c(Br)c2nc(Cl)cc(NCc3ccco3)c2n1C(F)F` [Compound 270, 2-((2S,3S)-3-aminotetrahydro-2H-pyran-2-yl)-3-bromo-5-chloro-1-(difluoromethyl)-N-(furan-2-ylmethyl)-1H-pyrrolo[3,2-b]pyridin-7-amine] has an IC50 (ATXN3 pre-mRNA) of 30 to 300 nM and an IC50 [1] of 30 to 300 nM.

With `N[C@H]1CCCCCC[C@@H]1c1sc2c(NCc3cccs3)cc(Cl)nc2c1I` [Compound 122, 2-((1S,2S)-2-aminocyclooctyl)-5-chloro-3-iodo-N-(thiophen-2-ylmethyl)thieno[3,2-b]pyridin-7-amine] the IC50 (ATXN3 pre-mRNA) was over 1000 nM and the IC50 [1] was over 1000 nM.

`N[C@H]1CCCO[C@@H]1c1c(Br)c2nc(Cl)cc(NCc3cccs3)c2n1C(F)F` [Compound 281, 2-((2S,3S)-3-aminotetrahydro-2H-pyran-2-yl)-3-bromo-5-chloro-1-(difluoromethyl)-N-(thiophen-2-ylmethyl)-1H-pyrrolo[3,2-b]pyridin-7-amine] showed an IC50 (ATXN3 pre-mRNA) of 30 to 300 nM and an IC50 [1] of 30 to 300 nM.

Molecule `N[C@H]1CCCCCC[C@H]1c1cc2nc(Cl)cc(NCc3cccs3)c2s1` [Compound 104, 2-((1R,2S)-2-aminocyclooctyl)-5-chloro-N-(thiophen-2-ylmethyl)thieno[3,2-b]pyridin-7-amine] has an IC50 (ATXN3 pre-mRNA) of over 1000 nM and an IC50 [1] of over 1000 nM.

`N[C@H]1CC=CC[C@@H]1c1sc2c(NCc3cccs3)cc(Cl)nc2c1C#Cc1ccncc1` [Compound 395, 2-((1S,6S)-6-aminocyclohex-3-en-1-yl)-5-chloro-3-(pyridin-4-ylethynyl)-N-(thiophen-2-ylmethyl)thieno[3,2-b]pyridin-7-amine] showed an IC50 (ATXN3 pre-mRNA) of 30 to 300 nM and an IC50 [1] of 300 to 1000 nM.
